Key:
[1] = target: Beta-2 adrenergic receptor (Homo sapiens, UniProt P07550); assay type: functional, cell-based
[2] = target: T1, Alpha-2B adrenergic receptor (Homo sapiens, UniProt P18089)
T1 sequence (P18089 whole entry): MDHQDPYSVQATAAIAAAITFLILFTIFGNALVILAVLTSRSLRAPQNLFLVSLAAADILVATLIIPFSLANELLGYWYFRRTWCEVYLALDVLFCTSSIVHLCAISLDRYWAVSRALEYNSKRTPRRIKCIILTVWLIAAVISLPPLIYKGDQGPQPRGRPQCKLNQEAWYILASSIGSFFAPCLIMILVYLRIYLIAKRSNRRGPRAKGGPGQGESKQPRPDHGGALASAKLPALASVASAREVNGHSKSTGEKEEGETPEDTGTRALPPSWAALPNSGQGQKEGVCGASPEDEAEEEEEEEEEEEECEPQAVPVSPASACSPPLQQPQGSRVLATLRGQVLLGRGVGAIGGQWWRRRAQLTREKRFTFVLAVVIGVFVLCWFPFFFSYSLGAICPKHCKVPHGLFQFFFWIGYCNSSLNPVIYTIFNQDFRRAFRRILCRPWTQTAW

[3] = target: T2, Adenosine receptor A1 (Homo sapiens, UniProt P30542)
T2 sequence (P30542 whole entry): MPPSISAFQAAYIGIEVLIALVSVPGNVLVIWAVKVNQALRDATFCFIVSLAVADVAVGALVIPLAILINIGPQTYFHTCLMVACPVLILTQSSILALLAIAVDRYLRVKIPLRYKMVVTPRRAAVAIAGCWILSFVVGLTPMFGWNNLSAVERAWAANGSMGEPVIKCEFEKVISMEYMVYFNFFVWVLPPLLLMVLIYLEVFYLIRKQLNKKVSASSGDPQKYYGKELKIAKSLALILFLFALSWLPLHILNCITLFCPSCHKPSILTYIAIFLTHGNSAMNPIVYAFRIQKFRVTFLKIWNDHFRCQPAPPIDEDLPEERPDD

[4] = target: Glutamate receptor ionotropic, NMDA 1 (Rattus norvegicus, UniProt P35439)
[5] = target: Adenosine receptor A2a (Homo sapiens, UniProt P29274)
[6] = target: Beta-1 adrenergic receptor (Homo sapiens, UniProt P08588); assay type: functional
[7] = target: T3, Cholecystokinin receptor type A (Homo sapiens, UniProt P32238)
T3 sequence (P32238 whole entry): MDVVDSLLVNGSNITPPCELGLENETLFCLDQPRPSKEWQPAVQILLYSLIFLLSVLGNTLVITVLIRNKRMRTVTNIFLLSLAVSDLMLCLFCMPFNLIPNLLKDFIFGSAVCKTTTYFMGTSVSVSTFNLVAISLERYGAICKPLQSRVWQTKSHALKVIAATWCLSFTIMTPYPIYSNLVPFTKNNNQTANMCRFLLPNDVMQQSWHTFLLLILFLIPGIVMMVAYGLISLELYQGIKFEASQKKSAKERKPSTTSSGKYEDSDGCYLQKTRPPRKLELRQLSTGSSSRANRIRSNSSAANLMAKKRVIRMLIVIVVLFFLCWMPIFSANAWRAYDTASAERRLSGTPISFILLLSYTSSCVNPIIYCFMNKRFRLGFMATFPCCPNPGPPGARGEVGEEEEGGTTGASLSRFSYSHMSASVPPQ

[8] = target: T4, Thromboxane A2 receptor (Homo sapiens, UniProt P21731)
T4 sequence (P21731 whole entry): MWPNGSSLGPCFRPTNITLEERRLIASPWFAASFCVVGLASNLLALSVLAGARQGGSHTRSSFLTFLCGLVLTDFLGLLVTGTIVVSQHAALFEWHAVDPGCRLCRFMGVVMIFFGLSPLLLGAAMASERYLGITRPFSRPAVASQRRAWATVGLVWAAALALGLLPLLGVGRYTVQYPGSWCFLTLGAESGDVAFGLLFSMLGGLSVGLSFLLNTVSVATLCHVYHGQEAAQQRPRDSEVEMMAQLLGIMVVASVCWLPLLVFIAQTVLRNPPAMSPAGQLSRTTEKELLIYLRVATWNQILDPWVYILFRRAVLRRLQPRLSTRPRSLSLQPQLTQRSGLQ

[9] = target: 3',5'-cyclic-AMP phosphodiesterase 4D (Homo sapiens, UniProt Q08499); assay type: functional
[10] = target: Growth hormone secretagogue receptor type 1 (Homo sapiens, UniProt Q92847)
[11] = target: T5, Alpha-2A adrenergic receptor (Homo sapiens, UniProt P08913); assay type: functional, cell-based
T5 sequence (P08913 whole entry): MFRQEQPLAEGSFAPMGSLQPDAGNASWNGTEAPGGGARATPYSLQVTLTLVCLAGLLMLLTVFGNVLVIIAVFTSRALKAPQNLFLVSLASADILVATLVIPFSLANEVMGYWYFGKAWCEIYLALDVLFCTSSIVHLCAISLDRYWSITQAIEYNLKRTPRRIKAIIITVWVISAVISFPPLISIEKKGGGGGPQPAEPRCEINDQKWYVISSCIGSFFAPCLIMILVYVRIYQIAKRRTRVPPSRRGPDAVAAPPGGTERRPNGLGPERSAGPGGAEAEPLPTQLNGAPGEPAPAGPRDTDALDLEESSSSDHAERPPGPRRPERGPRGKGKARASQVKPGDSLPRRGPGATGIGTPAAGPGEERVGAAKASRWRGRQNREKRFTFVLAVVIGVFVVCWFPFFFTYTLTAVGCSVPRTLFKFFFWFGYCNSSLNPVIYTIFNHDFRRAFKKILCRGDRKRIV

Measured: AC50
Note: assay procedure not described here.

Chain of Growth hormone secretagogue receptor type 1 (Q92847 whole entry): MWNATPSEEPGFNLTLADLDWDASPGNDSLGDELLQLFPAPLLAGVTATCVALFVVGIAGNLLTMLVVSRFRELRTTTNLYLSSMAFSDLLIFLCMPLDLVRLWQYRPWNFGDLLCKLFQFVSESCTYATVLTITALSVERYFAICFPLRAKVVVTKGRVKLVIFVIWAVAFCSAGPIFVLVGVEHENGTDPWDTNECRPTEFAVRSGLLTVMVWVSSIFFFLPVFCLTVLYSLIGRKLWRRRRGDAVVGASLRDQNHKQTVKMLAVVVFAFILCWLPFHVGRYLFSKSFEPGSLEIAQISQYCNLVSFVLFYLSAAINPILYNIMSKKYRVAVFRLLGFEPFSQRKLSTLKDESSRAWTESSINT
Chain of 3',5'-cyclic-AMP phosphodiesterase 4D (Q08499 whole entry): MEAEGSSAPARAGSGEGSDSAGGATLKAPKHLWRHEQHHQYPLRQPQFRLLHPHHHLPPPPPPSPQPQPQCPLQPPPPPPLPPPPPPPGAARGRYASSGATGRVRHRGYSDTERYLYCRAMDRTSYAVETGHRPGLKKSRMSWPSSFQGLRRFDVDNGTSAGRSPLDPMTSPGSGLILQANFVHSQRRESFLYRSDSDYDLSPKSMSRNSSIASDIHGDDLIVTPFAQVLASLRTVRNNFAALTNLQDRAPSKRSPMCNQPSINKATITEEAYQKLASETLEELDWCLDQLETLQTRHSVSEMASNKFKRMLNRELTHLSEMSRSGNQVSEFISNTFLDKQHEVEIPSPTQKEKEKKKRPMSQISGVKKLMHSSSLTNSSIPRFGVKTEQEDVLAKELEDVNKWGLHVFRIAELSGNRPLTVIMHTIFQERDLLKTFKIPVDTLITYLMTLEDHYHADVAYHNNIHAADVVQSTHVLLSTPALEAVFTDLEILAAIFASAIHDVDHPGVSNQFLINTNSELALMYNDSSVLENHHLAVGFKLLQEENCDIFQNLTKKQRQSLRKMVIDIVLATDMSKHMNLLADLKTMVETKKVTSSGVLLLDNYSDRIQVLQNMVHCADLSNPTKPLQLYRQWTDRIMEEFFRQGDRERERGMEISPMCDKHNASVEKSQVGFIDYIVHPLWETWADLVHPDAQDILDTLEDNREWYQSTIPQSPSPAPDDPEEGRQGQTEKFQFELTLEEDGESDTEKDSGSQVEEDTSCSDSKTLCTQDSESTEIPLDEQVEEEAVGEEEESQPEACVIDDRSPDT
Chain of Beta-1 adrenergic receptor (P08588 whole entry): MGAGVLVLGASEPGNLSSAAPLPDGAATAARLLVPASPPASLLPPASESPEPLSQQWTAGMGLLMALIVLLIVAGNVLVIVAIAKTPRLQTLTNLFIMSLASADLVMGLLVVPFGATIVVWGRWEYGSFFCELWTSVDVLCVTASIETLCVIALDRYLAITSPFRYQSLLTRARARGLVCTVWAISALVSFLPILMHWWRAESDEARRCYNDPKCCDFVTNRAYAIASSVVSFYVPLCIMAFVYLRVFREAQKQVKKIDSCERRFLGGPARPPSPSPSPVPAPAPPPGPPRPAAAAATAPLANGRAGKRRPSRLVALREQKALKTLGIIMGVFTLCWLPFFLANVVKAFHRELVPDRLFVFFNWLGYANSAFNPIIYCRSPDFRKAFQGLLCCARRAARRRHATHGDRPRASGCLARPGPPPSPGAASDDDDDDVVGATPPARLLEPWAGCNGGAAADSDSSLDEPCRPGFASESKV
Chain of Adenosine receptor A2a (P29274 whole entry): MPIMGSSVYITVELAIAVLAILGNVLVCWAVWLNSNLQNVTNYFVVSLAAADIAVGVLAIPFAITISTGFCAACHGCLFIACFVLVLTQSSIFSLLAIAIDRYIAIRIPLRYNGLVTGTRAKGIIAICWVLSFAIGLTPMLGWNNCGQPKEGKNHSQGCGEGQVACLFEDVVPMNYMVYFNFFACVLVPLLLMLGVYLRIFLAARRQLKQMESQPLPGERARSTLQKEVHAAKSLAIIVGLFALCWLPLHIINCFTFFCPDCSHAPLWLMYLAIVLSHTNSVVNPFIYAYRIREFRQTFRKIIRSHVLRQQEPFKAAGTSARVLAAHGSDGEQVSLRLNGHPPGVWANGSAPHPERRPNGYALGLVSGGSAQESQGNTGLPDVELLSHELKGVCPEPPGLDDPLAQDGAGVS

N#Cc1ccccc1-c1cc(-c2ccccn2)cn(-c2ccccc2)c1=O
> 30 µM: [1] | [2] | [3] | [4] | [5] | [6] | [7] | [8] | [10] | [11]
13 µM: [9]

N=C(N)NCCCCCCC(=O)NC(O)C(=O)NCCCCNCCCN (centres undefined)
> 30 µM: [1] | [2] | [3] | [4] | [5] | [6] | [7] | [8] | [9] | [10] | [11]

Nc1ccc(C(=O)O)c(O)c1 [AMINOSALICYLIC ACID]
> 30 µM: [1] | [3] | [4] | [5] | [6] | [7] | [8] | [9] | [10] | [11]

O=C(CCCN1CCC(n2c(O)nc3ccccc32)CC1)c1ccc(F)cc1 [BENPERIDOL]
17 µM: [10]
0.85 µM: [2]
8.5 µM: [6]
> 30 µM: [1] | [3] | [4] | [5] | [7] | [8] | [9] | [11]

CS(=O)(=O)OCCCCOS(C)(=O)=O [BUSULFAN]
> 30 µM: [1] | [3] | [4] | [5] | [6] | [7] | [9] | [10] | [11]

CCCCC1(CC)C(=O)NC(=O)NC1=O [BUTETHAL]
> 30 µM: [1] | [2] | [3] | [4] | [5] | [6] | [7] | [9] | [10] | [11]

CO[C@@]1(NC(=O)Cc2cccs2)C(=O)N2C(C(=O)O)=C(COC(N)=O)CS[C@@H]21 [CEFOXITIN]
> 30 µM: [1] | [2] | [3] | [4] | [5] | [6] | [7] | [9] | [10] | [11]

CCN(CC)CCOC(=O)c1ccc(N)cc1Cl [CHLOROPROCAINE]
> 30 µM: [1] | [2] | [3] | [4] | [5] | [6] | [7] | [9] | [10] | [11]

O=C(O)c1ccccc1OP(=O)(O)O [FOSFOSAL]
> 30 µM: [1] | [2] | [3] | [5] | [6] | [7] | [9] | [10] | [11]

CC1(C)C(/C=C/C=C/C=C/C=C2\N(CCCCS(=O)(=O)O)c3ccc4ccccc4c3C2(C)C)=[N+](CCCCS(=O)(=O)[O-])c2ccc3ccccc3c21 [INDOCYANINE GREEN ACID FORM]
> 30 µM: [1] | [4] | [5] | [11]
22 µM: [3]
19 µM: [7]
14 µM: [10]
9.4 µM: [6]
6.9 µM: [2]
2.3 µM: [9]

Nc1nc2c(c(=O)[nH]1)N(C=O)C(CNc1ccc(C(=O)N[C@@H](CCC(=O)O)C(=O)O)cc1)CN2 (some centres undefined) [LEUCOVORIN]
> 30 µM: [1] | [3] | [4] | [5] | [6] | [7] | [8] | [9] | [10] | [11]

CCCC[C@H](C)C[C@H](O)/C=C/[C@H]1[C@H](O)CC(=O)[C@@H]1CCCC/C=C/C(=O)O [LIMAPROST]
> 30 µM: [1] | [2] | [3] | [4] | [5] | [6] | [7] | [9] | [10] | [11]

Cc1ccc(NC(=O)C2(c3ccc4c(c3)OC(F)(F)O4)CC2)nc1-c1cccc(C(=O)O)c1 [LUMACAFTOR]
15 µM: [9]
> 30 µM: [1] | [2] | [3] | [4] | [5] | [6] | [7] | [10] | [11]

CCOC(=O)Nc1ccc2c(c1)N(C(=O)CCN1CCOCC1)c1ccccc1S2 [MORICIZINE]
> 30 µM: [1] | [2] | [3] | [4] | [5] | [6] | [7] | [10] | [11]
0.77 µM: [9]

CCn1cc(C(=O)O)c(=O)c2cc(F)c(N3CCN(C)CC3)cc21 [PEFLOXACIN]
> 30 µM: [1] | [3] | [4] | [5] | [6] | [7] | [9] | [10] | [11]

CCCNC(C)C(=O)Nc1ccccc1C (centres undefined) [PRILOCAINE]
> 30 µM: [1] | [3] | [5] | [6] | [7] | [9] | [10] | [11]
21 µM: [4]

Cc1cc2nc3c(=O)[nH]c(=O)nc-3n(C[C@H](O)[C@H](O)[C@H](O)COP(=O)(O)O)c2cc1C [RIBOFLAVIN 5'-PHOSPHATE]
2.9 µM: [1]
> 30 µM: [2] | [3] | [4] | [5] | [6] | [7] | [8] | [9] | [10]

COc1cc2c(Nc3ccc(Br)cc3F)ncnc2cc1OCC1CCN(C)CC1 [VANDETANIB]
26 µM: [10]
> 30 µM: [1] | [3] | [4] | [5] | [6] | [9] | [11]
0.682 µM: [2]
> 10 µM: [7]

COLISTIN
> 30 µM: [1] | [2] | [4] | [9] | [11]
